Measurements from patent US20260015364A1, “PIPERAZINE BRIDGE-SUBSTITUTED HETEROCYCLIC PYRIMIDINE COMPOUND” (MEDSHINE DISCOVERY INC., priority 2022, published 2026).

Tested on: PANC04.03 cell subcutaneously transplanted tumors
Test: In vivo pharmacodynamic experiment of PANC04.03 tumor model
Parameters: species or system Balb/c Nude mice
Details: p.o., BID, 28 days of administration
Protocol: In vivo pharmacodynamics of PANC04.03 cell subcutaneously transplanted tumors in Balb/c Nude mice model with human pancreatic cancer
Cell culture: Human pancreatic cancer PANC04.03 cells were cultured in monolayer in vitro. The culture conditions were RPMI-1640+15% FBS+10 units/mL insulin, and cultured in a 37° C., 5% carbon dioxide incubator. Routine digestion with trypsin-EDTA was performed twice a week for passaging. When the cell saturation reached 80% to 90% and the required quantity was reached, the cells were harvested, counted, and resuspended in an appropriate amount of PBS to obtain a cell suspension with a cell density of 25×10^6 cells/mL.
Cell inoculation: 0.2 mL (5×10^6 cells/mouse) of PANC04.03 cells were subcutaneously inoculated into the right back of each mouse.
Experimental operation: When the average tumor volume reached 190 mm^3, the mice were randomly divided into groups according to the tumor volume, with 6 animals in each group. The blank group was administered with a dose of 0, and the test group was orally administered with a dose of 30 mg/kg, 100 mg/kg, 150 mg/kg, and a volume of 10 μL/g, respectively, and was administered twice a day for 28 days.
Tumor diameters were measured twice a week with a vernier caliper. The formula for calculating tumor volume is: V=0.5a×b^2, wherein a and b represent the long and short diameters of the tumor, respectively.
The tumor inhibitory efficacy of the compound was evaluated by TGI (%) or relative tumor proliferation rate T/C (%). Relative tumor proliferation rate T/C (%)=TRTV/CRTV×100% (TRTV:RTV of treatment group; CRTV:RTV of negative control group). The relative tumor volume (RTV) was calculated based on the results of tumor measurements. The calculation formula is RTV=Vt/V0, where V0 is the average tumor volume measured at the beginning of administration in groups (i.e., D0), and Vt is the average tumor volume measured at a certain measurement. TRTV and CRTV used the data from the same day.
TGI (%) reflected the tumor growth inhibition rate. […]

## C#Cc1c(F)ccc2cc(N)cc(-c3ncc4c(N5CC6CCC(C5)N6)nc(OC[C@@]56CC(=C)CN5C[C@@H]5C[C@@H]56)nc4c3F)c12 (single isomer, unassigned) [Compound 3]
30 mpk
  TGI: 95.41%
100 mpk
  TGI: 108.41%
150 mpk
  TGI: 115.80%
